Measurements published in the supplement of paper PMC13380429.

How the values were obtained:
Conditions in all cases: 72 h
Vero E6 [1] = test: relative viability EC50 (midpoint between 100% and the lowest measured viability); higher = less toxic
HepG2 [2] = test: as above
Caco-2 [3] = test: as above
U2OS [4] = test: as above
Vero E6 [5] = test: cell viability relative to DMSO; higher = less toxic
HepG2 [6] = test: as above
Caco-2 [7] = test: as above
U2OS [8] = test: as above
Vero E6 [9] = test: drug sensitivity score (DSS) for viability; higher = more toxic; extreme values may be limits of the assay
HepG2 [10] = test: as above
Caco-2 [11] = test: as above
U2OS [12] = test: as above
Calu-3 [13] = test: relative viability EC50 (midpoint between 100% and the lowest measured viability); higher = less toxic
Calu-3 [14] = test: cell viability relative to DMSO; higher = less toxic
Calu-3 [15] = test: drug sensitivity score (DSS) for viability; higher = more toxic; extreme values may be limits of the assay

Cc1ccc(OCCSc2ncccn2)c(Br)c1 [ZLN024]
relative viability EC50 (Vero E6 [1]): > 10 µM | relative viability EC50 (HepG2 [2]): > 10 µM | relative viability EC50 (Caco-2 [3]): > 10 µM | relative viability EC50 (U2OS [4]): > 10 µM | cell viability (Vero E6 [5]; 1 nM): 106% | cell viability (Vero E6 [5]; 10 nM): 98.2% | cell viability (Vero E6 [5]; 100 nM): 107% | cell viability (Vero E6 [5]; 1000 nM): 102% | cell viability (Vero E6 [5]; 10000 nM): 105% | cell viability (HepG2 [6]; 1 nM): 105% | cell viability (HepG2 [6]; 10 nM): 106% | cell viability (HepG2 [6]; 100 nM): 109% | cell viability (HepG2 [6]; 1000 nM): 99.9% | cell viability (HepG2 [6]; 10000 nM): 110% | cell viability (Caco-2 [7]; 1 nM): 99.2% | cell viability (Caco-2 [7]; 10 nM): 104% | cell viability (Caco-2 [7]; 100 nM): 94.8% | cell viability (Caco-2 [7]; 1000 nM): 97% | cell viability (Caco-2 [7]; 10000 nM): 102% | cell viability (U2OS [8]; 1 nM): 97.8% | cell viability (U2OS [8]; 10 nM): 105% | cell viability (U2OS [8]; 100 nM): 97.1% | cell viability (U2OS [8]; 1000 nM): 101% | cell viability (U2OS [8]; 10000 nM): 101% | drug sensitivity score (Vero E6 [9]): 0 | drug sensitivity score (HepG2 [10]): 0 | drug sensitivity score (Caco-2 [11]): 0 | drug sensitivity score (U2OS [12]): 0

CC(C)C[C@H](NC(=O)[C@@H](COC(C)(C)C)NC(=O)[C@H](Cc1ccc(O)cc1)NC(=O)[C@H](CO)NC(=O)[C@H](Cc1c[nH]c2ccccc12)NC(=O)[C@H](Cc1cnc[nH]1)NC(=O)[C@@H]1CCC(=O)N1)C(=O)N[C@@H](CCCNC(=N)N)C(=O)N1CCC[C@H]1C(=O)NNC(N)=O [goserelin-acetate]
relative viability EC50 (Calu-3 [13]): > 10 µM | relative viability EC50 (Vero E6 [1]): > 10 µM | relative viability EC50 (HepG2 [2]): > 10 µM | relative viability EC50 (U2OS [4]): > 10 µM | cell viability (Calu-3 [14]; 1 nM): 99.4% | cell viability (Calu-3 [14]; 10 nM): 97.7% | cell viability (Calu-3 [14]; 100 nM): 96.1% | cell viability (Calu-3 [14]; 1000 nM): 95.4% | cell viability (Calu-3 [14]; 10000 nM): 104% | cell viability (Vero E6 [5]; 1 nM): 91% | cell viability (Vero E6 [5]; 10 nM): 104% | cell viability (Vero E6 [5]; 100 nM): 104% | cell viability (Vero E6 [5]; 1000 nM): 95.3% | cell viability (Vero E6 [5]; 10000 nM): 88.7% | cell viability (HepG2 [6]; 1 nM): 108% | cell viability (HepG2 [6]; 10 nM): 92.9% | cell viability (HepG2 [6]; 100 nM): 100% | cell viability (HepG2 [6]; 1000 nM): 92.1% | cell viability (HepG2 [6]; 10000 nM): 98.7% | cell viability (Caco-2 [7]; 1 nM): 96.9% | cell viability (Caco-2 [7]; 10 nM): 106% | cell viability (Caco-2 [7]; 100 nM): 96.6% | cell viability (Caco-2 [7]; 1000 nM): 73.5% | cell viability (Caco-2 [7]; 10000 nM): 94.1% | cell viability (U2OS [8]; 1 nM): 107% | cell viability (U2OS [8]; 10 nM): 101% | cell viability (U2OS [8]; 100 nM): 99.2% | cell viability (U2OS [8]; 1000 nM): 98.7% | cell viability (U2OS [8]; 10000 nM): 96.7% | drug sensitivity score (Calu-3 [15]): 0 | drug sensitivity score (Vero E6 [9]): 0.1 | drug sensitivity score (HepG2 [10]): 0 | drug sensitivity score (Caco-2 [11]): 0.6 | drug sensitivity score (U2OS [12]): 0

CCOc1cc(C(C)(C)C)ccc1C1=N[C@@](C)(c2ccc(Cl)cc2)[C@@](C)(c2ccc(Cl)cc2)N1C(=O)N1CCN(CCCS(C)(=O)=O)CC1 [RG7112]
relative viability EC50 (Calu-3 [13]): > 10 µM | relative viability EC50 (Vero E6 [1]): 1.38 µM | relative viability EC50 (HepG2 [2]): 0.327 µM | relative viability EC50 (U2OS [4]): 1.34 µM | cell viability (Calu-3 [14]; 1 nM): 98% | cell viability (Calu-3 [14]; 10 nM): 94.6% | cell viability (Calu-3 [14]; 100 nM): 101% | cell viability (Calu-3 [14]; 1000 nM): 89% | cell viability (Calu-3 [14]; 10000 nM): 77.5% | cell viability (Vero E6 [5]; 1 nM): 106% | cell viability (Vero E6 [5]; 10 nM): 107% | cell viability (Vero E6 [5]; 100 nM): 99.3% | cell viability (Vero E6 [5]; 1000 nM): 78.1% | cell viability (Vero E6 [5]; 10000 nM): 28.8% | cell viability (HepG2 [6]; 1 nM): 95.1% | cell viability (HepG2 [6]; 10 nM): 102% | cell viability (HepG2 [6]; 100 nM): 86.3% | cell viability (HepG2 [6]; 1000 nM): 35.2% | cell viability (HepG2 [6]; 10000 nM): 20.6% | cell viability (Caco-2 [7]; 1 nM): 101% | cell viability (Caco-2 [7]; 10 nM): 95.9% | cell viability (Caco-2 [7]; 100 nM): 104% | cell viability (Caco-2 [7]; 1000 nM): 94.5% | cell viability (Caco-2 [7]; 10000 nM): 56.6% | cell viability (U2OS [8]; 1 nM): 97.6% | cell viability (U2OS [8]; 10 nM): 98.1% | cell viability (U2OS [8]; 100 nM): 96.9% | cell viability (U2OS [8]; 1000 nM): 80.5% | cell viability (U2OS [8]; 10000 nM): 44.7% | drug sensitivity score (Calu-3 [15]): 2 | drug sensitivity score (Vero E6 [9]): 7.1 | drug sensitivity score (HepG2 [10]): 13.7 | drug sensitivity score (Caco-2 [11]): 3.1 | drug sensitivity score (U2OS [12]): 5.5

CC[C@H]1CN2CC[C@H]1C[C@@H]2[C@@H](O)c1ccnc2ccc(OC)cc12 [hydroquinidine]
relative viability EC50 (Vero E6 [1]): > 10 µM | relative viability EC50 (HepG2 [2]): > 10 µM | relative viability EC50 (Caco-2 [3]): > 10 µM | relative viability EC50 (U2OS [4]): > 10 µM | cell viability (Vero E6 [5]; 1 nM): 97.4% | cell viability (Vero E6 [5]; 10 nM): 102% | cell viability (Vero E6 [5]; 100 nM): 103% | cell viability (Vero E6 [5]; 1000 nM): 107% | cell viability (Vero E6 [5]; 10000 nM): 91% | cell viability (HepG2 [6]; 1 nM): 91.7% | cell viability (HepG2 [6]; 10 nM): 95.1% | cell viability (HepG2 [6]; 100 nM): 101% | cell viability (HepG2 [6]; 1000 nM): 89.1% | cell viability (HepG2 [6]; 10000 nM): 93.1% | cell viability (Caco-2 [7]; 1 nM): 105% | cell viability (Caco-2 [7]; 10 nM): 106% | cell viability (Caco-2 [7]; 100 nM): 94.6% | cell viability (Caco-2 [7]; 1000 nM): 94.7% | cell viability (Caco-2 [7]; 10000 nM): 87.4% | cell viability (U2OS [8]; 1 nM): 99.9% | cell viability (U2OS [8]; 10 nM): 99.4% | cell viability (U2OS [8]; 100 nM): 97.3% | cell viability (U2OS [8]; 1000 nM): 97.8% | cell viability (U2OS [8]; 10000 nM): 98.6% | drug sensitivity score (Vero E6 [9]): 0 | drug sensitivity score (HepG2 [10]): 0 | drug sensitivity score (Caco-2 [11]): 0.1 | drug sensitivity score (U2OS [12]): 0

Cc1noc(C)c1-c1cc(O)cc([C@@H](O)c2ccccc2)c1 [OXF-BD-02]
relative viability EC50 (Vero E6 [1]): 1.48 µM | relative viability EC50 (Caco-2 [3]): > 10 µM | cell viability (Calu-3 [14]; 1 nM): 98.9% | cell viability (Calu-3 [14]; 10 nM): 95.2% | cell viability (Calu-3 [14]; 100 nM): 99.8% | cell viability (Calu-3 [14]; 1000 nM): 96.8% | cell viability (Calu-3 [14]; 10000 nM): 70.8% | cell viability (Vero E6 [5]; 1 nM): 102% | cell viability (Vero E6 [5]; 10 nM): 103% | cell viability (Vero E6 [5]; 100 nM): 94.6% | cell viability (Vero E6 [5]; 1000 nM): 76.9% | cell viability (Vero E6 [5]; 10000 nM): 17% | cell viability (HepG2 [6]; 1 nM): 107% | cell viability (HepG2 [6]; 10 nM): 104% | cell viability (HepG2 [6]; 100 nM): 98.6% | cell viability (HepG2 [6]; 1000 nM): 101% | cell viability (HepG2 [6]; 10000 nM): 54.4% | cell viability (Caco-2 [7]; 1 nM): 100% | cell viability (Caco-2 [7]; 10 nM): 92% | cell viability (Caco-2 [7]; 100 nM): 99.3% | cell viability (Caco-2 [7]; 1000 nM): 92.5% | cell viability (Caco-2 [7]; 10000 nM): 80.3% | cell viability (U2OS [8]; 1 nM): 97.2% | cell viability (U2OS [8]; 10 nM): 94.2% | cell viability (U2OS [8]; 100 nM): 99.7% | cell viability (U2OS [8]; 1000 nM): 86.9% | cell viability (U2OS [8]; 10000 nM): 59.3% | drug sensitivity score (Calu-3 [15]): 1.8 | drug sensitivity score (Vero E6 [9]): 8 | drug sensitivity score (HepG2 [10]): 2.3 | drug sensitivity score (Caco-2 [11]): 1.3 | drug sensitivity score (U2OS [12]): 3.9

O=C1NC(=O)C(=Cc2ccc(-c3ccc(F)cc3)o2)S1 (stereo in doubt)
relative viability EC50 (Vero E6 [1]): > 10 µM | relative viability EC50 (HepG2 [2]): > 10 µM | relative viability EC50 (Caco-2 [3]): > 10 µM | relative viability EC50 (U2OS [4]): > 10 µM | cell viability (Vero E6 [5]; 1 nM): 97.7% | cell viability (Vero E6 [5]; 10 nM): 102% | cell viability (Vero E6 [5]; 100 nM): 95.8% | cell viability (Vero E6 [5]; 1000 nM): 91.5% | cell viability (Vero E6 [5]; 10000 nM): 89.1% | cell viability (HepG2 [6]; 1 nM): 104% | cell viability (HepG2 [6]; 10 nM): 111% | cell viability (HepG2 [6]; 100 nM): 99.4% | cell viability (HepG2 [6]; 1000 nM): 94% | cell viability (HepG2 [6]; 10000 nM): 100% | cell viability (Caco-2 [7]; 1 nM): 99.2% | cell viability (Caco-2 [7]; 10 nM): 97.9% | cell viability (Caco-2 [7]; 100 nM): 104% | cell viability (Caco-2 [7]; 1000 nM): 95.3% | cell viability (Caco-2 [7]; 10000 nM): 90.4% | cell viability (U2OS [8]; 1 nM): 95.3% | cell viability (U2OS [8]; 10 nM): 98.5% | cell viability (U2OS [8]; 100 nM): 99.9% | cell viability (U2OS [8]; 1000 nM): 97.5% | cell viability (U2OS [8]; 10000 nM): 98.1% | drug sensitivity score (Vero E6 [9]): 0.1 | drug sensitivity score (HepG2 [10]): 0 | drug sensitivity score (Caco-2 [11]): 0 | drug sensitivity score (U2OS [12]): 0
